The text below walks through data of article PMC5812454 (Nanomedicine : nanotechnology, biology, and medicine, 2016).

The target in data set [1] is T1, Recombinant human HER2 (Thr 23 – Thr 652) fused to IgG1 Fc Tag (Homo sapiens, UniProt P04626). Put plainly: SPR binding to immobilized HER2. In general terms: In SPR one partner is held on a chip, and binding of the other changes the refractive index at the surface.
The conditions of data set [2]: ref [8]; cited from earlier work.
In data set [3] the test system is HER2-positive breast cancer. The note with it: cited from earlier work.
The target of data set [4] is T1, Recombinant human HER2 (Thr 23 – Thr 652) fused to IgG1 Fc Tag. Put plainly: SPR.

Where a SMILES comes first, the peptide text is derived from it. Bridges are numbered along the chain shown (N, C = ends). {NH2} = amine

Consider `CSCC[C@H](NC(=O)[C@H](Cc1ccc(O)cc1)NC(=O)[C@@H]1CSSC[C@H](NC(=O)[C@@H](N)Cc2ccc(O)cc2)C(=O)N[C@@H](CC(=O)O)C(=O)NCC(=O)N[C@@H](Cc2ccccc2)C(=O)N[C@@H](Cc2ccc(O)cc2)C(=O)N[C@@H](C)C(=O)N1)C(=O)N[C@@H](CC(=O)O)C(=O)N[C@H](C(N)=O)C(C)C` [AHNP] (H-YCDGFYACYMDV-NH2; disulfide 2-8), for which the Kd (commonly the equilibrium constant for the complex coming apart) in data set [1] turned out to be 520 nM. For the same compound, the off-rate constant (koff) – broadly, the rate constant with which the complex falls apart – in data set [1] (pH 9.5) was found to be 0.00042 s⁻¹. Moreover, in data set [2], the “water solubility (in words)” value is on record as “poorly water soluble”. The “tumor growth inhibition (in words)” value in data set [3] (free AHNP, dose of 4 mg/kg, ref [12]) is given as “only a modest degree of inhibition”.
“AHNP, anti-HER2/neu peptide, 12 amino acid exocyclic mimetic peptide (analogue 3)”: the koff in data set [4] came out at 0.00042 s⁻¹.
On to “AON: HER2-mRNA annealing Morpholino AON 5′-CATGGTGCTCACTGCGGCTCCGGC-NH2-3′ (all phosphorodiamidate morpholino (PMO), 3' {NH2})”, for which the tumor growth inhibition in data set [3] (AON in the absence of HER2 targeting, 2.5 mg/kg, ref [4]) is recorded as 30–40%.
Consider starPEG(PEG200-AHNP)2, for which, in data set [4], the Kd was 4600 nM, the koff was 0.00054 s⁻¹ and the kon (commonly a measure of how fast the partners come together) amounted to 118 M⁻¹ s⁻¹.
